From patent publication US20240165089A1, “METHOD FOR TREATING MYOPIA WITH VINPOCETINE” (EYE HOSPITAL, WENZHOU MEDICAL UNIVERSITY, priority 2021, published 2024)
Values after ≈ are worked out from the molar mass of the structure shown. Read-outs that look alike come from different tables or passages of the source.

Experiments:
[1] = system: choroid of LIM guinea pigs; assay: choroidal thickness and blood flow by OCTA, LIM group; format: in vivo, guinea pig; settings: 1 week, vs solvent injection group
Experimental: The choroidal blood flow parameters and choroidal thickness were measured for the animals in the above FDM group after 1 week of continuous administration and at the end of the 2 week-administration experiment and for the animals in the LIM group at the end of the 7 day-administration experiment. Choroidal blood flow parameters and thickness were measured using a modified commercial OCTA (Spectralis HRA+OCT, OCTA, Heidelberg, Germany) which is more suitable for animal eyeballs. Before the measurement, the guinea pigs were fully anesthetized (a mixture of ketamine hydrochloride 60 mg/kg and xylazine hydrochloride 9 mg/kg, intraperitoneally injected), and then the guinea pig OCTA images were obtained, and the measurement results were quantified through a self-written program (MatLab R2017a, MathWorks). Real-time quantitative detection of choroidal blood flow and thickness in guinea pigs was achieved (Sen Zhang, Invest Ophthalmol Vis Sci. 2019 Jul. 1; 60(8):3074-3083).
Vinpocetine is known to improve blood circulation. The inventors used the method of example 1 to detect changes of indicator signals of choroidal thickness ChT and choroidal blood flow ChBP of FDM (1 week and 2 weeks of administration) and LIM (1 week of administration) at different time points during the administration cycle.

[2] = system: form deprivation myopia (FDM) guinea pig model; assay: FDM guinea pig model, systemic (gavage) administration; format: in vivo; settings: for axial length difference between the eyes / vitreous chamber depth difference between the eyes / refraction difference between the eyes / body weight: FDM; for refraction difference between the eyes: end of treatment (2 weeks); for body weight / mean weight decrease vs solvent group: vinpocetine 50 mg/kg/d gavage
Excerpt: The form deprivation myopia animal model and the method for evaluating the efficacy of vinpocetine for myopia treatment used in this experiment were the same as other relevant embodiments (local administration) in this application. Among them, the establishment of a guinea pig model of form deprivation myopia (FDM) and the gavage administration were manipulated and performed referring to the published literature in the inventor's laboratory. […] On the first day of the experiment, form deprivation (FD) myopia modeling began at 8 a.m. on the guinea pigs. The form deprivation myopia model adopted the mask method. The hood was made by the inventors using a 10-inch milky white non-toxic latex balloon. The right eye of the individual guinea pig for modeling was covered by the hood (experimental eye), and the left eye was not covered by the hood (contralateral eye). FD induction was continued during the entire vinpocetine efficacy experiment cycle by gavage administration, and the hood was only briefly removed during eye testing (such as refraction testing). […] The administration route was gavage administration. […] Administration was performed once a day for 2 weeks. […] 2017). Without adding other pharmaceutical excipients or other compounds, the inventors directly and completely dissolved the vinpocetine compound powder in 0.5% methylcellulose solvent (sterile water+methylcellulose) to prepare a vinpocetine preparation (gavage liquid) at 10 mg/mL and 20 mg/mL. The overall appearance of the preparation at room temperature was clear, transparent, and uniform, with no suspended matter visible to the naked eye. The preparation process of the preparation may use conventional physical and chemical solubilization means such as heating, stirring, and pH adjustment as appropriate, and no compounds would precipitate before administration of the preparation.

[3] = cited from earlier work
[4] = rats; cited from earlier work
rabbits = settings: rabbit, in vivo, cited from earlier work
[5] = vinpocetine 50 mg/kg gavage, 2 weeks
[6] = vinpocetine 100 mg/kg gavage, 2 weeks

SMILES: CCOC(=O)C1=C[C@]2(CC)CCCN3CCc4c(n1c1ccccc41)[C@@H]32 [vinpocetine]
- choroidal thickness ChT ([1]; not statistically significant): only slightly increased
- choroidal blood perfusion ChBP ([1]; p=0.766): only slightly increased
- axial length difference between the eyes [2, 5]: 0.13±0.05 mm
- vitreous chamber depth difference between the eyes [2, 5]: 0.13±0.07 mm
- refraction difference between the eyes ([2]; vinpocetine 50 mg/kg gavage): −5.71±2.41 D
- body weight ([2]; 1 week): 188 ± 22.9 g
- body weight ([2]; 2 weeks): 210 ± 21.9 g
- axial length difference between the eyes [2, 6]: 0.11±0.05 mm
- vitreous chamber depth difference between the eyes [2, 6]: 0.10±0.06 mm
- refraction difference between the eyes ([2]; vinpocetine 100 mg/kg gavage): −5.223±2.20 D
- mean weight decrease vs solvent group ([2]; 1 week): 9.9%
- mean weight decrease vs solvent group ([2]; 2 weeks): 8.4%
- solubility in water [3]: almost insoluble in water
- solubility in 0.5% methylcellulose ([3]; room temperature): 200 mg/mL (≈ 571 mM)
- solubility in water ([3]; room temperature): 0.0024 mg/mL (≈ 0.00685 mM)
- oral bioavailability [4]: 52%
- toxicity findings (rabbits; 75 mg/kg/day): without any obvious abnormalities
- toxicity findings (rabbits; 150 mg/kg): toxic effects of weight loss and food intake reduction
